Like-named read-outs stand apart in the source and are kept apart here.
Legend:
HIV-1(MN) = type: cell-based; details: INA-treated HIV-1(MN); for Avg. Capsid Protein conc. Day 7 / Avg. Capsid Protein conc. Day 14 / Avg. Capsid Protein conc. Day 21: AA2 clone 1 cells; for Culture Result Neg / Culture Result Pos: of quadruplicate cultures
neuraminidase = type: biochemical, influenza virus H3N2
[1] = tested on: influenza virus strain H3N2 (X-31); type: cell-based
influenza HA = type: cell-based, influenza virus; details: pH 5.0
influenza virus = type: cell-based
HIV [2] = type: binding; details: compared with non-treated virus; p24 ELISA; FIG. 7
HeLa cell membrane = type: cell-based; details: HeLa cells, INA 20 or 100 μM + UV; FIG. 17
HIV [3] = type: cell-based; details: cells exposed to INA-treated HIV; FIG. 6
Zaire EBOV = type: cell-based, Zaire Ebola virus
tumor cells = type: cell-based
SIV = type: cell-based; details: INA-treated SIV; FIG. 5
EBOV-GFP = type: cell-based, Zaire Ebola virus
SIV Mne = type: cell-based

[N-]=[N+]=Nc1cccc2c(I)cccc12 [INA, 1,5-iodonaphthyl azide]
Avg. Capsid Protein conc. Day 7 (HIV-1(MN); 1/dil 10^1): 9,201 pg/ml
Avg. Capsid Protein conc. Day 14 (HIV-1(MN); 1/dil 10^1): 0 pg/mL
Avg. Capsid Protein conc. Day 21 (HIV-1(MN); 1/dil 10^1): 0 pg/mL
Culture Result Neg (HIV-1(MN); 1/dil 10^1, day 21): 4
Culture Result Pos (HIV-1(MN); 1/dil 10^1, day 21): 0
Avg. Capsid Protein conc. Day 7 (HIV-1(MN); 1/dil 10^2): 0 pg/mL
Avg. Capsid Protein conc. Day 14 (HIV-1(MN); 1/dil 10^2): 0 pg/mL
Avg. Capsid Protein conc. Day 21 (HIV-1(MN); 1/dil 10^2): 0 pg/mL
Culture Result Neg (HIV-1(MN); 1/dil 10^2, day 21): 4
Culture Result Pos (HIV-1(MN); 1/dil 10^2, day 21): 0
Avg. Capsid Protein conc. Day 7 (HIV-1(MN); 1/dil 10^3): 0 pg/mL
Avg. Capsid Protein conc. Day 14 (HIV-1(MN); 1/dil 10^3): 0 pg/mL
Avg. Capsid Protein conc. Day 21 (HIV-1(MN); 1/dil 10^3): 0 pg/mL
Culture Result Neg (HIV-1(MN); 1/dil 10^3, day 21): 4
Culture Result Pos (HIV-1(MN); 1/dil 10^3, day 21): 0
Avg. Capsid Protein conc. Day 7 (HIV-1(MN); 1/dil 10^4): 0 pg/mL
Avg. Capsid Protein conc. Day 14 (HIV-1(MN); 1/dil 10^4): 0 pg/mL
Avg. Capsid Protein conc. Day 21 (HIV-1(MN); 1/dil 10^4): 0 pg/mL
Culture Result Neg (HIV-1(MN); 1/dil 10^4, day 21): 4
Culture Result Pos (HIV-1(MN); 1/dil 10^4, day 21): 0
Avg. Capsid Protein conc. Day 7 (HIV-1(MN); 1/dil 10^5): 0 pg/mL
Avg. Capsid Protein conc. Day 14 (HIV-1(MN); 1/dil 10^5): 0 pg/mL
Avg. Capsid Protein conc. Day 21 (HIV-1(MN); 1/dil 10^5): 0 pg/mL
Culture Result Neg (HIV-1(MN); 1/dil 10^5, day 21): 4
Culture Result Pos (HIV-1(MN); 1/dil 10^5, day 21): 0
Avg. Capsid Protein conc. Day 7 (HIV-1(MN); 1/dil 10^6): 0 pg/mL
Avg. Capsid Protein conc. Day 14 (HIV-1(MN); 1/dil 10^6): 0 pg/mL
Avg. Capsid Protein conc. Day 21 (HIV-1(MN); 1/dil 10^6): 0 pg/mL
Culture Result Neg (HIV-1(MN); 1/dil 10^6, day 21): 4
Culture Result Pos (HIV-1(MN); 1/dil 10^6, day 21): 0
1/TCID50/ml (HIV-1(MN); Reed and Muench, day 21): 0
catalytic activity of the viral envelope enzyme neuraminidase (neuraminidase): not affected
infectivity of the influenza virus [1]: reduced the infectivity of the influenza virus to zero
redistribution of viral envelope proteins into the cell membrane (125INA incorporation into HA) (influenza HA): almost no detectable signal
pH dependent mixing of lipids from the viral envelope with lipids of the target cell (R-18 dequenching) (influenza virus): not affected
binding of INA-treated HIV to neutralizing antibodies 2G12, B12 and 4E10 (HIV [2]): interacts substantially the same as the non-treated virus
mobile fraction of the lipid (DiO) (HeLa cell membrane): not affected
protein mobile fraction (CD4-GFP) (HeLa cell membrane): reduced to background level
luciferase expression in JC53BL cells (HIV [3]): substantially no luciferase expression is detected
virus growth (genome copies in culture supernatant) (Zaire EBOV): did not show any growth
ability of tumor cells to divide and form colonies (tumor cells): blocked their ability to divide and form colonies
fusion of SIV with the target cell at the plasma membrane level (SIV): blocked fusion of SIV with the target cell
concentration sufficient to inactivate EBOV completely (EBOV-GFP): 100 to 200 µM
infectivity of EBOV-GFP (EBOV-GFP; 24-96 h): complete loss of infectivity
infectivity blocked (SIV Mne; 200 μM INA, SIV (P-28) and HIV (P-24) expression): 100%
production of the viral protein p28 (SIV Mne; 200 μM INA, up to 11 days after INA treatment, FIG. 4): no detectable production
1/TCID50/ml (SIV Mne; INA-treated SIV Mne, Reed and Muench, day 21): 0
Culture Result Pos (SIV Mne; INA-treated SIV, 1/dil 10^1, number of cultures productively infected, day 21): 0
Culture Result Neg (SIV Mne; INA-treated SIV, 1/dil 10^1, number of cultures uninfected, day 21): 0
viral infectivity of SIV (SIV Mne; as little as 50 μM INA, FIG. 4): reduced to essentially zero

From patent publication US8278083B2 (priority 2004, dated 2012)
